According to ChEMBL document CHEMBL5346939, “Targeting glutaminase 1 (GLS1) by small molecules for anticancer therapeutics” (Eur J Med Chem, 2023):

How the values were obtained:
[1] = target: T1, Glutaminase kidney isoform, mitochondrial (Homo sapiens, UniProt O94925); assay: Inhibition of C-terminal His-tagged human recombinant KGA transformed in Escherichia coli BL21 DE3 at pH 7.4 incubated for 3 hrs
T1 sequence (O94925 whole entry): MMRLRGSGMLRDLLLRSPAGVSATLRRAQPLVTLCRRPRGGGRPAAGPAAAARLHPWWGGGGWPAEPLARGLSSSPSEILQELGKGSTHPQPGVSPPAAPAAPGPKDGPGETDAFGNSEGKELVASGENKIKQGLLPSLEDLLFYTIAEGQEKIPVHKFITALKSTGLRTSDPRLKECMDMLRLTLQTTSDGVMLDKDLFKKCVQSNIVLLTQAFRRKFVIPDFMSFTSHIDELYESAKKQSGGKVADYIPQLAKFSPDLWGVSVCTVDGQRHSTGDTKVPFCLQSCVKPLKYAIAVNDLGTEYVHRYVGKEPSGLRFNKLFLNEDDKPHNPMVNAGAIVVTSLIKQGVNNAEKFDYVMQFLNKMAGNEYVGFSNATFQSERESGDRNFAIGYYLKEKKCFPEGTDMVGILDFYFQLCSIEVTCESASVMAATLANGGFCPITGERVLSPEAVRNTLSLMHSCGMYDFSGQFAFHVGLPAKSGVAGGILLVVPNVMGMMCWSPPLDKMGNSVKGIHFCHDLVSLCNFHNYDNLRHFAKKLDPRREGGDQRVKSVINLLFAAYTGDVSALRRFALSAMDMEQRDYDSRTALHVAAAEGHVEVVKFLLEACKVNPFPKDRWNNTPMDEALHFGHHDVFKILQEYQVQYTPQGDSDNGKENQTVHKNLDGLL

[2] = Inhibition of human recombinant Glutaminase
[3] = Inhibition of N-terminal 6His-tagged recombinant rat glutaminase expressed in Escherichia coli BL-21 DE3 measured after 20 mins by colorimetric analysis
SW1990 = assay: Antiproliferative activity against human SW1990 cells assessed as reduction in cell viability measured after 72 hrs by CCK-8 assay; format: functional, cell-based; settings: SW1990, 72 h
[4] = Lipophilicity, logP of the compound at pH 7.4 by HPLC analysis; format: physicochemical; settings: buffer
[5] = Inhibition of 6His-tagged recombinant mouse GAC expressed in Escherichia coli preincubated for 10 mins and measured after 45 mins by chromatographic analysis
[6] = target: T1, Glutaminase kidney isoform, mitochondrial; assay: Inhibition of N-terminal His-tagged GLS1 (unknown origin) expressed in Escherichia coli BL21 (DE3) preincubated for 20 mins and measured after 2 hrs
[7] = target: T1, Glutaminase kidney isoform, mitochondrial; assay: Inhibition of full length C terminal His-tagged human KGA expressed in Escherichia coli BL-21 DE3
HCC1806 = assay: Cytotoxicity against human HCC1806 cells assessed as reduction in cell viability measured after 48 hrs by MTT assay; format: functional, cell-based; settings: HCC1806, 48 h
[8] = Inhibition of N-terminal Histidine-tagged recombinant mouse GAC incubated for 1 hrs by fluorescence based analysis
[9] = Inhibition of full length C-terminal His-tagged rat Glutaminase expressed in Escherichia coli BL21 DE3 incubated for 12 hrs
[10] = Inhibition of human Glutaminase

O=c1c2ccccc2[se]n1CCCCCCn1[se]c2ccccc2c1=O
IC50 [1]: 0.2 µM

CN(C)c1ccc(C2Nc3ccc4ccccc4c3C3=C2C(=O)CC(C)(C)C3)cc1Br (stereo not drawn)
IC50 [2]: ~9.3 µM

O=C(Cc1ccccc1)Nc1nnc(CCSCCc2nnc(NC(=O)Cc3ccccc3)s2)s1
IC50 [3]: 3.3 µM | IC50 (SW1990): 35.3 µM | logP [4]: 3.73

O=C(Cc1cccc(OC(F)(F)F)c1)Nc1ccc(CCCCc2nnc(NC(=O)Cc3ccccn3)s2)nn1
IC50 (SW1990): 13.1 µM | logP [4]: 2.72

CN(C)c1ccc(C2Nc3ccc4ccccc4c3C3=C2C(=O)CC(C)(C)C3)cc1 (stereo not drawn)
IC50 [5]: ~50 µM

CC(C)c1ccc(C2Nc3ccc4ccccc4c3C3=C2C(=O)CC(C)(C)C3)cc1 (stereo not drawn)
IC50 [5]: ~20 µM

CC1(C)CC(=O)C2=C(C1)c1c(ccc3ccccc13)NC2c1ccc(C(C)(C)C)cc1 (stereo not drawn)
IC50 [5]: ~10 µM

O=C(Cc1ccccc1)Nc1nnc([C@@H]2CCC[C@@H](c3nnc(NC(=O)Cc4ccccc4)s3)C2)s1
IC50 [6]: 0.1 µM

C=C1CC[C@]2(C(=O)O[C@@H]3O[C@H](CO[C@@H]4O[C@H](CO)[C@@H](O)[C@H](O)[C@H]4O)[C@@H](O)[C@H](O)[C@H]3O)CC[C@]3(C)C(=CCC4[C@@]5(C)CC[C@H](O[C@@H]6OC[C@H](O[C@@H]7OC[C@H](O)[C@H](O)[C@H]7O[C@@H]7O[C@@H](C)[C@H](O)[C@@H](O)[C@H]7O)[C@H](O)[C@H]6O)C(C)(C)C5CC[C@]43C)C2C1 (stereo partly drawn)
IC50 [7]: 6.1 µM | IC50 (HCC1806): 24.9 µM

CN(C)c1ccc(C2Nc3ccc4cc(C(C)(C)C)ccc4c3C3=C2C(=O)CC(C)(C)C3)cc1Br (stereo not drawn)
IC50 [8]: 4.5 µM

CC1(C)CCc2c(ccc3c2O[C@@H]2c4ccc(O)cc4O[C@H]3[C@H]2O)O1
IC50 [9]: 36.7 µM

CN1CCc2cccc3c2[C@H]1Cc1ccc(O)c(O)c1-3 [APOMORPHINE]
IC50 [10]: 0.6 µM

COc1ccc2c(c[n+](C)c3c4cc5c(cc4ccc23)OCO5)c1OC [CHELERYTHRINE CHLORIDE]
IC50 [10]: 0.03 µM

O=c1c2ccccc2[se]n1-c1ccccc1 [EBSELEN]
IC50 [10]: 0.009 µM
